Measured values: PubChem BioAssay AID1963422 (Molecular Pharmacology Branch, DTP, NCI, 2024)
“And” between values parts separate entries of the source, which are not always exact repeats. Equal entries are not always repeated.

System: 463943-066-T-J2-PDC complex spheroid growth
Assay: Anticancer human tumor 463943-066-T-J2-PDC patient-derived colon adenocarcinoma cell line growth inhibition [Asc]
Conditions: for viability, T/C: stronger effect = lower value; active = viability on the fitted dose curve at most 10% of control; inactive = the rest
How it was run: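 Complex solid-tumor spheroids incorporating human endothelial and mesenchymal stem cells received single agents or combinations over half-log dilution ranges anchored to clinical Cmax.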
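Also: compound exposure lasted 7 days.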
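For viability, T/C in this document: 100% = DMSO vehicle control wells.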

Cc1nc(N2CCC3(CC2)COC(C)C3N)c(CO)nc1Sc1ccnc(N)c1Cl (stereo unspecified) + CCN1C(C(=O)NC23CCC(C(=O)O)(CC2)CC3)C(c2cccc(Cl)c2F)C2(C(=O)Nc3cc(Cl)ccc32)C12CCCCC2
inactive: viability, T/C (second compound 0.00949 µM, first compound 0.00949 µM) 96.7% | viability, T/C (second compound 0.00949 µM, first compound 0.03 µM) 88% | viability, T/C (second compound 0.00949 µM, first compound 0.0949 µM) 87% | viability, T/C (second compound 0.00949 µM, first compound 0.3 µM) 81.5% | viability, T/C (second compound 0.00949 µM, first compound 0.949 µM) 82.3% | viability, T/C (second compound 0.00949 µM, first compound 3 µM) 63.6% | viability, T/C (second compound 0.03 µM, first compound 0.00949 µM) 91% | viability, T/C (second compound 0.03 µM, first compound 0.03 µM) 91.3% | viability, T/C (second compound 0.03 µM, first compound 0.0949 µM) 81.2% | viability, T/C (second compound 0.03 µM, first compound 0.3 µM) 82.2% | viability, T/C (second compound 0.03 µM, first compound 0.949 µM) 74% | viability, T/C (second compound 0.03 µM, first compound 3 µM) 60% | viability, T/C (second compound 0.0949 µM, first compound 0.00949 µM) 90.1% | viability, T/C (second compound 0.0949 µM, first compound 0.03 µM) 86.8% | viability, T/C (second compound 0.0949 µM, first compound 0.0949 µM) 76.2% | viability, T/C (second compound 0.0949 µM, first compound 0.3 µM) 75.7% | viability, T/C (second compound 0.0949 µM, first compound 0.949 µM) 71.5% | viability, T/C (second compound 0.0949 µM, first compound 3 µM) 61.9% | viability, T/C (second compound 0.3 µM, first compound 0.00949 µM) 82.7% | viability, T/C (second compound 0.3 µM, first compound 0.03 µM) 82.5% | viability, T/C (second compound 0.3 µM, first compound 0.0949 µM) 82.5% | viability, T/C (second compound 0.3 µM, first compound 0.3 µM) 72.2% | viability, T/C (second compound 0.3 µM, first compound 0.949 µM) 64% | viability, T/C (second compound 0.3 µM, first compound 3 µM) 59.1% | viability, T/C (second compound 0.949 µM, first compound 0.00949 µM) 74.3% | viability, T/C (second compound 0.949 µM, first compound 0.03 µM) 72.2% | viability, T/C (second compound 0.949 µM, first compound 0.0949 µM) 62.7% | viability, T/C (second compound 0.949 µM, first compound 0.3 µM) 62.3% | viability, T/C (second compound 0.949 µM, first compound 0.949 µM) 60.3% | viability, T/C (second compound 0.949 µM, first compound 3 µM) 53.2% | viability, T/C (second compound 3 µM, first compound 0.00949 µM) 70.7% | viability, T/C (second compound 3 µM, first compound 0.03 µM) 64.6% | viability, T/C (second compound 3 µM, first compound 0.0949 µM) 64.1% | viability, T/C (second compound 3 µM, first compound 0.3 µM) 63% | viability, T/C (second compound 3 µM, first compound 0.949 µM) 60.6% | viability, T/C (second compound 3 µM, first compound 3 µM) 49.6%
> 3 µM: IC50 (curve of first compound, second compound 0.00949 µM) | IC50 (curve of first compound, second compound 0.03 µM) | IC50 (curve of first compound, second compound 0.0949 µM) | IC50 (curve of first compound, second compound 0.3 µM) | IC50 (curve of first compound, second compound 0.949 µM) | IC50 (curve of first compound, second compound 3 µM)

NC(=O)C(=Cn1cnc(-c2cc(C(F)(F)F)cc(C(F)(F)F)c2)n1)c1cncnc1 + CNC(C)C(=O)NC1CN(S(=O)(=O)c2cccc(S(=O)(=O)N3CCC4CCC(C(=O)NC(c5ccccc5)c5ccccc5)N4C(=O)C(NC(=O)C(C)NC)C3)c2)CCC2CCC(C(=O)NC(c3ccccc3)c3ccccc3)N2C1=O
> 0.3 µM: IC50 (curve of first compound, second compound 0.00316 µM) | IC50 (curve of first compound, second compound 0.01 µM) | IC50 (curve of first compound, second compound 0.0316 µM) | IC50 (curve of first compound, second compound 0.1 µM) | IC50 (curve of first compound, second compound 0.316 µM) | IC50 (curve of first compound, second compound 1 µM)
inactive: viability, T/C (second compound 0.00316 µM, first compound 0.000949 µM) 84.3% | viability, T/C (second compound 0.00316 µM, first compound 0.003 µM) 77.2% | viability, T/C (second compound 0.00316 µM, first compound 0.00949 µM) 77.4% | viability, T/C (second compound 0.00316 µM, first compound 0.03 µM) 78.7% | viability, T/C (second compound 0.00316 µM, first compound 0.0949 µM) 73.2% | viability, T/C (second compound 0.00316 µM, first compound 0.3 µM) 64.8% | viability, T/C (second compound 0.01 µM, first compound 0.000949 µM) 95.8% | viability, T/C (second compound 0.01 µM, first compound 0.003 µM) 87.6% | viability, T/C (second compound 0.01 µM, first compound 0.00949 µM) 80.8% | viability, T/C (second compound 0.01 µM, first compound 0.03 µM) 84.9% | viability, T/C (second compound 0.01 µM, first compound 0.0949 µM) 85.1% | viability, T/C (second compound 0.01 µM, first compound 0.3 µM) 65.3% | viability, T/C (second compound 0.0316 µM, first compound 0.000949 µM) 82.4% | viability, T/C (second compound 0.0316 µM, first compound 0.003 µM) 81.2% | viability, T/C (second compound 0.0316 µM, first compound 0.00949 µM) 80.4% | viability, T/C (second compound 0.0316 µM, first compound 0.03 µM) 88.3% | viability, T/C (second compound 0.0316 µM, first compound 0.0949 µM) 83.9% | viability, T/C (second compound 0.0316 µM, first compound 0.3 µM) 66.6% | viability, T/C (second compound 0.1 µM, first compound 0.000949 µM) 90.7% | viability, T/C (second compound 0.1 µM, first compound 0.003 µM) 82.6% | viability, T/C (second compound 0.1 µM, first compound 0.00949 µM) 82.5% | viability, T/C (second compound 0.1 µM, first compound 0.03 µM) 85% | viability, T/C (second compound 0.1 µM, first compound 0.0949 µM) 80.5% | viability, T/C (second compound 0.1 µM, first compound 0.3 µM) 67.3% | viability, T/C (second compound 0.316 µM, first compound 0.000949 µM) 85.2% | viability, T/C (second compound 0.316 µM, first compound 0.003 µM) 82.4% | viability, T/C (second compound 0.316 µM, first compound 0.00949 µM) 82.5% | viability, T/C (second compound 0.316 µM, first compound 0.03 µM) 78.9% | viability, T/C (second compound 0.316 µM, first compound 0.0949 µM) 80.3% | viability, T/C (second compound 0.316 µM, first compound 0.3 µM) 64.2% | viability, T/C (second compound 1 µM, first compound 0.000949 µM) 78.2% | viability, T/C (second compound 1 µM, first compound 0.003 µM) 91.9% | viability, T/C (second compound 1 µM, first compound 0.00949 µM) 78.5% | viability, T/C (second compound 1 µM, first compound 0.03 µM) 77.4% | viability, T/C (second compound 1 µM, first compound 0.0949 µM) 73.3% | viability, T/C (second compound 1 µM, first compound 0.3 µM) 58.5%

O=C(c1cc(Cc2n[nH]c(=O)c3ccccc23)ccc1F)N1CCN(C(=O)C2CC2)CC1
> 10 µM: IC50 (curve of compound)
inactive: viability, T/C (compound 0.0316 µM) 98.1% and 99.9% and 93.3% | viability, T/C (compound 0.1 µM) 98.8% and 91.9% and 78.9% | viability, T/C (compound 0.316 µM) 99.5% and 98.5% and 103% | viability, T/C (compound 1 µM) 96.7% and 97.9% and 108% | viability, T/C (compound 3.16 µM) 103% and 97.2% and 92.4% | viability, T/C (compound 10 µM) 92.1% and 91.5% and 97.2%
